The source of these data is PMC10850501 (Nature Communications, 2024).

Structures are written as SMILES. Peptide text beside a SMILES is read from it.

Data set [1] has as its system SARS-CoV-2 live virus (B.1 lineage), Vero E6 cells. It counts as cell-based.
Data set [2] is described as follows: Acute IV pharmacokinetics. It counts as in vivo, rat (female Wistar). The following applies: ESBP3 200μL (10 mg/mL) IV bolus, Wistar rats (n=8). The procedure:
Female Wistar rats (225–250 g, 8–12 weeks old) were observed and acclimatized for 2 weeks prior to running the studies. They were housed in a controlled environment with temperature at […] and 40–70% humidity. They were kept in an alternating 12-hour light/dark cycle, and food, and water was provided as pellets ad libitum. Female Wistar Rats were used for the pharmacokinetics and the drug clearance analysis from the blood. The two hydrogels (ESBP2 and ESBP3) at 10 mg/ml concentration were injected into the rats via the lateral tail vein. For subcutaneous implants, the substance was injected between the shoulder blades and above the lumbar vertebrae, 200 μL each, using a 25-gauge needle. The hydrogel bolus was prepared with 0.9% saline and was injected within 1–2 minutes. The volume injected was approximately 1% of the total body weight of the rat, which was calculated prior to the dosing. The initial blood draw was performed for baseline, and the subsequent blood collection was performed from the lateral vein using 25 g butterfly needles.
Rat blood samples were collected at 0, 5, 15, 30 minutes, and 1, 2, 4, 8, and 24 hours post-injection timepoints for Acute PK and were aliquoted out into heparinized tubes to prevent coagulation and stored on top of ice packs. Blood collected in K2EDTA anticoagulant tubes was processed to plasma frozen via centrifugation at 13000 RCF for 10 minutes at 4 °C and stored at −80 °C till analysis using HPLC. The body weight was recorded every day prior to the blood collection.

Data set [3] is described as follows: Stability testing by HPLC / LC-MS. In kind it is physicochemical. The procedure: Chromatographic analyses were performed on an analytical high-pressure liquid chromatography system (HPLC) with MassLynx software (Version 4.1). Runs were carried out on a Zorbax C3 column (5 µm, 150 mm × 4.6 mm) with a 1.0 mL/min flow rate. The mobile phase A was 0.1% trifluoroacetic acid in MilliQ water and mobile phase B was 0.1% trifluoroacetic acid in acetonitrile. Gradients started with mobile phase A at 75% and ran at a 1% ramp to 65% mobile phase B. Samples were diluted using 3:7 ACN:MilliQ water to a concentration of 1.0 mg/mL and then passed through a 0.22 μm syringe filter before injecting 30 μL of the sample. The column and autosampler were maintained at 40 °C and 25 °C, respectively. A Waters 2487 UV detector monitored 215 nm, and mass spectra were collected from 50 to 3000 AMU. The capillary voltage was 3.00 kV, cone voltage was 30.00 V, extractor voltage was 3.00 V, RF lens voltage was 0.1 V, source temperature was 100 °C, cone gas flow was 50.0 L/h, and desolvation gas flow was 500 L/h[30],[88] for the electrospray source.
[…] The stability of peptide samples was then measured using HPLC[87].

Broadly, the AUC is the area under the concentration-time curve, a measure of exposure.

Take `CC[C@H](C)[C@H](NC(=O)[C@H](Cc1ccc(O)cc1)NC(=O)[C@@H](NC(=O)[C@H](CCCCN)NC(=O)[C@H](Cc1ccc(O)cc1)NC(=O)[C@H](CCC(N)=O)NC(=O)CNC(=O)[C@H](CCC(=O)O)NC(=O)[C@H](CC(C)C)NC(=O)[C@H](CO)NC(=O)[C@H](CC(C)C)NC(=O)[C@H](CO)NC(=O)[C@H](CC(C)C)NC(=O)[C@H](CO)NC(=O)[C@H](CC(C)C)NC(=O)[C@H](CO)NC(=O)[C@H](CC(C)C)NC(=O)[C@H](CO)NC(=O)[C@H](CC(C)C)NC(=O)[C@H](CO)NC(=O)[C@H](CCC(=O)O)NC(C)=O)[C@@H](C)O)C(=O)N[C@@H](CC(=O)O)C(=O)N[C@@H](CCCCN)C(=O)N[C@@H](CC(N)=O)C(=O)N[C@@H](CC(N)=O)C(=O)N[C@@H](Cc1c[nH]cn1)C(=O)N[C@@H](Cc1ccc(O)cc1)C(=O)N[C@@H](C)C(=O)N[C@@H](CCC(=O)O)C(=O)N[C@@H](CC(=O)O)C(=O)N[C@@H](CCC(=O)O)C(=O)N[C@@H](CCCNC(=N)N)C(=O)N[C@@H](Cc1ccc(O)cc1)C(=O)N[C@@H](CCCCN)C(N)=O` [ESBP3] (Ac-ESLSLSLSLSLSLEGQYKTYIDKNNHYAEDERYK-NH2): in data set [1], the “Comparative, Average” value is 66.6154; the “inhibition of live virus, in words” value was “dose-dependent inhibition of live virus”; the “live virus plaque inhibition, in words” value was “no major differences”. Moreover, the “eliminated by” value in data set [2] was ≤ 8 h. Besides, the Cmax in data set [2] (female, rat, plasma, 2 mg, at 5 min, read-out: observed maximum concentration) is ~550 µg/mL. For the same molecule, the AUC in data set [2] (female, rat, plasma, 2 mg, read-out: AUC) worked out at 395 µg·h/mL. For the same molecule, the “stability of lyophilized peptide, in words” value in data set [3] (-20 °C, 4 °C, 25 °C and 37°C over 10 weeks, HPLC/LC-MS) is listed as “exceptional”. Moreover, in data set [3] (lyophilized form and in formulation at a variety of temperatures over 12 weeks, HPLC), the “stability, in words” value is given as “excellent stability”. The “degradation in aqueous formulation, in words” value in data set [3] (over 10 weeks, LC-MS) is on record as “minimal”.
